Target: T1, hM3 muscarinic receptor subtype (Homo sapiens, UniProt P20309)
T1 construct: expressed in transfected cells; crude membranes
Test: Radioligand binding assay ([3H]-NMS displacement), CHO cell membranes
Details: [3H]-NMS at 1 nM, CHO cell membranes expressing hM3, 60 minutes at 37° C.; read-out: Ki value for the M3 muscarinic receptor subtype
Experimental: A. Membrane Preparation from Cells Expressing hM1, hM2, hM3 and hM4 Muscarinic Receptor Subtypes
CHO (Chinese hamster ovary) cell lines stably expressing cloned human hM1, hM2, hM3 and hM4 muscarinic receptor subtypes, respectively, were grown to near confluency in medium consisting of HAM's F-12 supplemented with 10% FBS (Fetal Bovine Serum) and 250 μg/mL Geneticin. The cells were grown in a 5% CO2, 37° C. incubator and lifted with 2 mM EDTA in dPBS. Cells were collected by 5 minute centrifugation at 650×g, and cell pellets were either stored frozen at −80° C. or membranes were prepared immediately. […] The protein concentration of the membrane suspension was determined by the method described in Lowry, O. et al., Journal of Biochemistry 193:265 (1951). […]
Radioligand binding assays were performed in 96-well microtiter plates in a total assay volume of 100 μL. […] Filter plates were rinsed three times with wash buffer (10 mM HEPES) to remove unbound radioactivity. […] The plates were then counted in a PerkinElmer Topcount liquid scintillation counter (PerkinElmer Inc., Wellesley, Mass.). Binding data were analyzed by nonlinear regression analysis with the GraphPad Prism Software package (GraphPad Software, Inc., San Diego, Calif.) using the one-site competition model. […]

T1 sequence (P20309 whole entry): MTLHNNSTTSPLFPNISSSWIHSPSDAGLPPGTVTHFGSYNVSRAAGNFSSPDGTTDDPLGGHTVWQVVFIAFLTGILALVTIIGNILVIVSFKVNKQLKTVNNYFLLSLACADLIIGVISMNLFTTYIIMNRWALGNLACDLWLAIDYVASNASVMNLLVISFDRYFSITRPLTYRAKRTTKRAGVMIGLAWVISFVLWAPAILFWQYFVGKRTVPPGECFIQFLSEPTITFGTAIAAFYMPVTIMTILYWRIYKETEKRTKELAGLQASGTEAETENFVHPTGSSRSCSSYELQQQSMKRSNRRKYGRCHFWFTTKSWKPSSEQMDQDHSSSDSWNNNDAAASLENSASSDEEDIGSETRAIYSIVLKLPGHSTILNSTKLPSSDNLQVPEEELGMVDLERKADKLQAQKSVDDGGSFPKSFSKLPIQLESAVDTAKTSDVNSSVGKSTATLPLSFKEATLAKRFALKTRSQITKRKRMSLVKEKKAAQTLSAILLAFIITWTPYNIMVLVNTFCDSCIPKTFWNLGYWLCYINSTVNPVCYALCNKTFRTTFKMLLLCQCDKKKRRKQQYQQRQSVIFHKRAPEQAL

NC(=O)C1CCN(CCCCCNC(=O)CCN2CCC(OC(=O)Nc3ccccc3-c3ccccc3)CC2)CC1 [Example 1, Biphenyl-2-ylcarbamic Acid 1-{2-[5-(4-Carbamoylpiperidin-1-yl)pentylcarbamoyl]ethyl}piperidin-4-yl Ester]
Ki: < 5 nM
